Results on one compound are retold here after patent US8735152B2, “Methods for inducing cell death in pluripotent stem cells and differentiated cells other than cardiac myocytes” (Daiichi Sankyo Company, Limited, priority 2009, dated 2014).

A short description of data set [1]: Saccharide concentration and osmotic pressure of hypertonic solutions (measured values). The data set is classed as physicochemical. The protocol:
When the hypertonic solution having an osmotic pressure of 370 mOsm/kg or higher is prepared by adding a saccharide to the culture medium, the method of the present invention is characterized in that the hypertonic solution contains the saccharide in 0.1-1 M (mol/L), preferably 0.1-0.6 M (mol/L). The relation between the concentration of saccharide (mol/L) and the osmotic pressure (mOsm/kg) can be approximated by a substantially straight line; a hypertonic solution containing 0.1 M saccharide corresponds to one having an osmotic pressure of approximately 370 mOsm/kg and a hypertonic solution containing 1 M saccharide corresponds to one having an osmotic pressure of approximately 1300-1600 mOsm/kg.
Hypertonic solutions were prepared using various saccharides and the relation between the saccharide concentration and the osmotic pressure is shown in the following table for typical saccharides.

Data set [2] has as its system embryonic stem cells. In words: Study of mannitol concentration and duration of exposure versus cell death of embryonic stem cells. The data set is classed as cell-based. The conditions noted are these: 1M (substantially saturated concentration). From the text:
The present inventors prepared hypertonic solutions containing mannitol dissolved in it at high concentrations and applied those hypertonic solutions to a mixed cell system comprising embryonic stem cells as well as cardiomyocytes and non-cardiomyocytes; they found the fact that upon exposure to the hypertonic solutions, the embryonic stem cells and non-cardiomyocytes were more likely to undergo cell death.

SMILES strings stand for the structures.

Consider `OC[C@@H](O)[C@@H](O)[C@H](O)[C@H](O)CO` [mannitol], for which the Osmotic pressure in data set [1] (saccharide concentration 0.2 M in culture medium) is given as roughly 480 mOsm/kg; in data set [1] (saccharide concentration 0.45 M in culture medium), roughly 720 mOsm/kg; in data set [1] (saccharide concentration 0.45 M in culture medium, listed as Mannitol), 717 mOsm/kg; in data set [1] (saccharide concentration 0.6 M in culture medium), 875 mOsm/kg; in data set [1] (saccharide concentration 0.9 M in culture medium), 1234 mOsm/kg. Besides, the “Cell death in embryonic stem cells” value in data set [2] was “induced cell death in embryonic stem cells within a short period of time”.
